Measured values from PubChem BioAssay AID1645848.
In brackets after ≈: the same amount, converted by molar mass.

Settings: buffer; pH 7.4; 6.0 h; 150.0 µM

Row | Compound | solubility kinetic [µg/mL]
1 | O=C(C1CC(=O)N(c2n[nH]c3ccccc23)C1)N1CCC(c2noc3cc(F)ccc23)CC1 (stereo unspecified) | 2.36 (≈ 5.28 µM)
2 | Cc1nc(Nc2ncc(C(=O)Nc3c(C)cccc3Cl)s2)cc(N2CCN(CCO)CC2)n1 | 25.6 (≈ 52.4 µM)
3 | Cc1ccc(-c2nnc(Nc3ccc(Br)cc3)c3ccccc23)cc1S(=O)(=O)N1CCN(C)CC1 | < 1
4 | O=C(Nc1ncc(Cc2ccc(C(F)(F)F)cc2)s1)c1ccco1 | < 1
5 | Oc1ccc2[nH]cc(CCCCN3CC=C(c4ccccc4)CC3)c2c1 | 42.4 (≈ 122 µM)
6 | O=C(Nc1ccc(Cl)cc1Cl)c1cnc2ccccc2n1 | < 1
7 | Cc1ccc(S(=O)(=O)Nc2ccccc2C(=O)Nc2cnc(-c3ccccc3)cn2)cc1 | < 1
8 | O=C(Nc1ccc(S(=O)(=O)Nc2nccs2)cc1)c1cccnc1 | > 53
9 | CCc1ccc(-n2c(=O)c3cccnc3n2CC(=O)Nc2cc(OC)ccc2OC)cc1 | < 1
10 | COc1cccc(CNc2ccc(S(=O)(=O)Nc3cccs3)cc2)c1O | 11.6 (≈ 29.6 µM)
11 | Cc1cccc(-n2nc(C)c3c2NC(=O)CSC3c2ccccc2Cl)c1 (stereo unspecified) | 2.15 (≈ 5.61 µM)
12 | O=C1CCC(CNC(=O)c2nc(-c3ccccc3)cc3[nH]ccc23)N1 (stereo unspecified) | > 74
13 | CN1CCCC1CCOC(c1cc2nccc(C(=O)O)c2[nH]1)c1ccccc1Cl (stereo unspecified) | > 61
14 | O=C(NCCc1ccc(OCC(F)(F)F)c(OCC(F)(F)F)c1)c1cc2sccc2n1Cc1ccccc1 | < 1
15 | O=C1NC(=O)C(c2cnc3ccccn23)=C1c1cn2c3c(cccc13)CN(C(=O)N1CCOCC1)CC2 | > 73
16 | CCOc1ccc(NC(=O)CC2C(=O)N(c3ccc(F)cc3)C(=O)N2CCc2sccc2C)cc1 (stereo unspecified) | < 1
17 | Cc1ccc(-c2csc(CCn3nc(C)c4c(C(F)(F)F)cc(=O)[nH]c43)n2)cc1 | < 1
18 | CN(C)c1cccc(-c2ncc(F)c(N3CCC(C(N)=O)CC3)n2)c1 | > 51
19 | CC(=O)c1c(C)[nH]c(C(=O)Nc2cccc(S(=O)(=O)Nc3ccc(Br)cc3)c2)c1C | < 1
20 | Fc1ccc(Nc2nc(-c3ccnc(N4CCCCC4)c3)nc3ccccc23)cc1F | < 1
21 | Cc1ccc(-c2cc(C(=O)O)c3ccccc3n2)cc1 | > 39

Row | Compound | solubility kinetic [µg/mL]
22 | COc1cccc(CC(=O)Nc2nc(-c3ccc4c(c3)CCN4C(=O)c3ccccc3C)c(C)s2)c1 | < 1
23 | O=C(N/N=C/c1ccc(O)c(O)c1)c1cc2ccccc2cc1O | 18.2 (≈ 56.5 µM)
24 | Cc1cnc(N2CCC(C(N)=O)CC2)nc1-c1cccc(N(C)C)c1 | > 50
25 | CCCCCn1c(=O)[nH]c2cc(C(=O)NCCCN3CCCCC3)ccc2c1=O | > 59
26 | Nc1nc2c(s1)C(c1cccc(F)c1F)CC(=O)N2 (stereo unspecified) | 8.33 (≈ 29.6 µM)
27 | COc1c(O)ccc2c1CN1CCc3cc4c(cc3[C@@H]1C2)OCO4 | 19.6 (≈ 60.2 µM)
28 | COc1c(NS(=O)(=O)c2ccc(C)cc2)cccc1C(=O)Nc1nc(-c2ccccc2)cs1 | < 1
29 | O=C(Nc1ccccc1C(=O)Nc1ccccc1C(=O)NCc1ccco1)c1ccco1 | 4.45 (≈ 10.4 µM)
30 | COc1ccc(-c2csc(N3CCC(C(N)=O)CC3)n2)cc1 | > 47
31 | COc1ccnc(NC(=S)N2CCN(c3ccccc3C(F)(F)F)CC2)c1 | 7 (≈ 17.7 µM)
32 | COc1ccc(NC(=O)c2[nH]c(C)c(C(C)=O)c2C)cc1[S+](=O)([O-])Nc1ccccc1C#N | 55.6 (≈ 119 µM)
33 | CC(=O)NCc1ccc(-c2csc(Nc3cccc(C)c3)n2)o1 | 29.8 (≈ 91.1 µM)
34 | CCOc1ccc(-c2nnc(SCC(=O)NCc3ccccc3Cl)o2)cc1 | < 1
35 | Fc1ccc(-c2csc3ncnc(Sc4nnnn4-c4ccccc4)c23)cc1 | 0.705 (≈ 1.73 µM)
36 | COc1cc2nc(N3CCCC3)nc(NCCCCCN3CCCC3)c2cc1OC | > 61
37 | CCCCCn1c(CCCNC(=O)c2ccccc2OC)nc2ccccc21 | 32.3 (≈ 85.2 µM)
38 | COC(=O)[C@]12CCC(C)(C)C[C@H]1[C@H]1C(=O)C=C3[C@@]4(C)C=C(C#N)C(=O)C(C)(C)[C@@H]4CC[C@@]3(C)[C@]1(C)CC2 | 1.99 (≈ 3.93 µM)
39 | COc1cccc(NC(=S)N2CCN(c3cccc(C(F)(F)F)c3)CC2)n1 | 0.435 (≈ 1.1 µM)
40 | COC(=O)c1ccnc(-c2cc(C(=O)Nc3ccc(C4(N)CC4)cc3)ccn2)c1 | 12.8 (≈ 32.8 µM)
41 | O=C(Cc1ccc(O)cc1)N1CC(CNc2ccccc2)C2(C1)CN(c1ccccc1)C2 (stereo unspecified) | < 1

Next, values leading:

Row | solubility kinetic [µg/mL] | Compound
42 | > 51 | COc1ccc2[nH]c(S(=O)Cc3ncc(C)c(OC)c3C)nc2n1 (stereo unspecified)
43 | > 43 | Fc1ccc(N2CCCN(CC3[C@H]4CNC[C@@H]34)CC2)cc1 (stereo partly specified)
44 | > 63 | Cc1nn2c(c1-c1ccccc1-c1ccccc1)N(Cc1ccc(C(=O)O)s1)CCC2
45 | 14.2 (≈ 26.1 µM) | COc1ccc(CN2CCc3c(c(=O)n4ncc(C(=O)N5CCN(c6ccccc6OC)CC5)c4n3C)C2)cc1
46 | > 60 | COC(=O)CNC(=O)c1nc(-c2ccccc2OC)c2ccccn12
47 | > 49 | CN1CCN(Cc2ccc(-c3ccc(C(C)(C)C#N)cc3)nc2)CC1
48 | 32.9 (≈ 88.8 µM) | NC(=O)C1CCN(c2ncc(-c3cccc(N4CCCCC4)c3)s2)CC1
49 | 4.34 (≈ 10.6 µM) | CCC(CC)C(=O)NC[C@@H]1C=C(C)[C@H](Cc2nc3c(C)cccc3[nH]2)C[C@H]1C(C)C
50 | > 27 | Cc1ccccc1OCC(O)CO (stereo unspecified)
51 | 3.93 (≈ 10.2 µM) | COc1cccc(CNc2ccc(S(=O)(=O)Nc3cccnc3)cc2)c1O
52 | < 1 | CC(C)Nc1oc(-c2cccc3ccccc23)nc1C#N
53 | > 100 | CC(=O)N1CCN(c2ccc(OCc3nn(C)c(C)c3-c3cccc4c(CCCOc5cc(C)c(Cl)c(C)c5)c(C(=O)O)n(Cc5cccnc5)c34)cc2)CC1
54 | 1 (≈ 2.4 µM) | O=C1CCCC2=C1C(c1[nH]ncc1Cl)N=C(Nc1nc3ccc(Cl)cc3o1)N2 (stereo unspecified)
55 | 10.8 (≈ 35.3 µM) | CCc1ccc(CNc2ccc3c(c2)ncn3C(C)(C)C)cc1
56 | 1.66 (≈ 3.14 µM) | Cc1ccc(-c2cc(C(=O)Nc3ccc(S(=O)(=O)NCc4nccs4)cc3)c3ccccc3n2)cc1C
57 | 2.55 (≈ 7.23 µM) | Cc1ccc(-n2c(C)cc(C3=NNC(=NC4CC4)SC3)c2C)cc1C
58 | 2.79 (≈ 7.46 µM) | NC1(c2ccc(NC(=O)c3ccnc(-c4cc(C(=O)O)ccn4)c3)cc2)CC1
59 | < 1 | COc1ccc(-c2csc(NC(=O)c3ccccc3NS(=O)(=O)c3ccc(C)cc3)n2)cc1
60 | 23.2 (≈ 88.9 µM) | CCCN(CCC)CCc1cccc2c1CC(=O)N2
61 | 7.22 (≈ 19.8 µM) | CS(=O)(=O)c1ccc(-c2csc(N3CCC(C(N)=O)CC3)n2)cc1
62 | 13.4 (≈ 33.6 µM) | CCCN1CNc2c(c(=O)[nH]c(=S)n2CCc2cccc(Cl)c2Cl)C1
63 | < 1 | COc1cc(/C=C(\C#N)c2nc3ccccc3[nH]2)ccc1OCc1ccc(F)cc1
64 | < 1 | O=C(Nc1nc(-c2ccccc2)cs1)c1ccncc1NS(=O)(=O)c1ccc(-c2ccccc2)cc1
65 | > 86 | COc1cc(N2CCC(N3CCN(C)CC3)CC2)ccc1Nc1ncc(Cl)c(Nc2ccccc2P(C)(C)=O)n1
66 | < 1 | CC(C)(C)C1CCc2nc(NC(=O)c3cccc(Cl)c3)sc2C1 (stereo unspecified)
67 | 6.41 (≈ 14.7 µM) | CCN1C(=O)c2ccccc2S(=O)c2ccc(NC(=O)Cc3ccc(OC)cc3)cc21 (stereo unspecified)
68 | < 1 | O=C(CSc1nc(-c2ccc(F)cc2)[nH]c1-c1ccc(F)cc1)Nc1ccc2c(c1)OCCO2
69 | 8.53 (≈ 24.3 µM) | CCS(=O)(=O)c1nc(-c2ccc(Cl)cc2)cc(C(F)(F)F)n1
70 | 28.6 (≈ 72.7 µM) | O=c1[nH]c(N2CCOCC2)nc2c1CCN(Cc1cc(Cl)ccc1F)CC2
71 | < 1 | COc1ccc(-c2nc(Nc3ccc(F)c(F)c3)c3ccccc3n2)cc1
